Assay [1] has as its target Sphingosine 1-phosphate receptor 1 (Homo sapiens, UniProt P21453). In words: Late-stage counterscreen for antagonists of kappa opioid receptor 1 (OPRK1): fluorescence-based cell-based dose response assay to identify antagonists of Sphingosine 1-Phosphate Receptor 1 (S1P1). It counts as functional. For orientation: Counterscreens check selectivity or assay interference.

In another assay the test system is INS1. In words: beta cell apoptosis inhibitors, cytokine rescue, dose response, luminescence, retest (AID 449756).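 Note: cell death triggered by IL-1 beta plus TNF-alpha plus IFN-gamma mixture; protective hits raise ATP signal compared with cytokine alone wells.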 It counts as functional, cell-based. The conditions noted are these: Rattus norvegicus.
A short description of assay [2]: control 3'UTR Renilla luciferase suppression, dose response, counter-screen for Shn3 inhibitor project, cell-based, Clone20-Shn3RL, cherry-picked (AID 624133). The class given is functional.
In another assay the target is Galanin receptor type 3 (Homo sapiens, UniProt O60755). In words: Fluorescence-based cell-based primary high throughput dose response assay to identify antagonists of the Galanin Receptor 3 (GalR3). The class given is functional.
The nature of assay [3]: cytotoxicity in HEK-293T cells, dose response, cytotoxicity control for TCR NF-kB inhibitor project, luminescence, T-cell screen hits (AID 489026).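 Note: cells exposed to compound about 14 hours before the viability readout.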 It counts as functional, cell-based.
In a further assay the target is Protein Wnt-3a (Mus musculus, UniProt P27467). The assay is described as follows: Wnt3a-driven reporter signaling inhibition, dose response, selectivity assay for Gli-SUFU antagonist project, Wnt-LIGHT cells, luminescence (AID 651570).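 Note: Wnt-LIGHT reporter cells stimulated with conditioned medium from Wnt3a-producing cells.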 The class given is functional. The conditions noted are these: read-out: IC50_Mean.
Chain of Protein Wnt-3a (P27467 whole entry): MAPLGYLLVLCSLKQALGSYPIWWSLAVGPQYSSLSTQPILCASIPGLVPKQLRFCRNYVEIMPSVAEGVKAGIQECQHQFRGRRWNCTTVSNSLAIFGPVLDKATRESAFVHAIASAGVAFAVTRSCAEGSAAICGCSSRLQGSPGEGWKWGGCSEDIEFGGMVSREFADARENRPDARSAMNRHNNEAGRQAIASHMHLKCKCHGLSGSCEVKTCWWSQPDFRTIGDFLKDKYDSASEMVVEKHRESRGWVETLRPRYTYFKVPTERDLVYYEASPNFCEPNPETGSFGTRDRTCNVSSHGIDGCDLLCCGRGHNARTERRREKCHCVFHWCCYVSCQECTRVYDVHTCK
Assay [4] deals with T1, High affinity choline transporter 1 (Homo sapiens, UniProt Q9GZV3).
T1 sequence (Q9GZV3 whole entry): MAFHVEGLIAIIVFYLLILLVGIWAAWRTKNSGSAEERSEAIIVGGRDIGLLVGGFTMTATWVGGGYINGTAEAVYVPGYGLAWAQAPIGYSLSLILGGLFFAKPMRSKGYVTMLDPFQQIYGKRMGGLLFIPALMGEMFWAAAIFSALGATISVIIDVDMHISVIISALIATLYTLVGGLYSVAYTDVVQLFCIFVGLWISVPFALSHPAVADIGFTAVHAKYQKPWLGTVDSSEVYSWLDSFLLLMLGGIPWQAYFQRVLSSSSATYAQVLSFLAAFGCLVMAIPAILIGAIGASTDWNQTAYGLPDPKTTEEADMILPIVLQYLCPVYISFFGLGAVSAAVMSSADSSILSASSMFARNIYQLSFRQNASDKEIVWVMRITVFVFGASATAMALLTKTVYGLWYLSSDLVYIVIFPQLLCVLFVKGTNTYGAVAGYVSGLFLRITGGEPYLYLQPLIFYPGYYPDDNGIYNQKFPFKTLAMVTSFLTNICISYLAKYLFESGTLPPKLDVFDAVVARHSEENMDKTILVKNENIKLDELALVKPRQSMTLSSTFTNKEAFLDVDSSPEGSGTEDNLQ
The assay is described as follows: CHT inhibitors, dose response, cell-based, 5-point CRC, membrane potential dye (AID 504840). It counts as functional.

A short description of assay [5]: Shn3 3'UTR reporter inhibitors, dose response, cell-based, Clone20 osteoblasts, firefly luciferase, cherry-picked (AID 624132).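 Note: firefly luciferase luminescence from reporter carrying the Shn3 3'UTR in osteoblasts.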 It counts as functional.
A further assay is described as follows: cells. It counts as functional, cell-based. The conditions noted are these: HEK-CNG.
For assay [6], the target named is Metabotropic glutamate receptor 5 (Rattus norvegicus, UniProt P31424). The assay is described as follows: Identification of a glycine sulfonamide based non-MPEP site positive allosteric potentiator (PAM) of mGlu5 (calcium_assay). It counts as functional.
Chain of Metabotropic glutamate receptor 5 (P31424 whole entry): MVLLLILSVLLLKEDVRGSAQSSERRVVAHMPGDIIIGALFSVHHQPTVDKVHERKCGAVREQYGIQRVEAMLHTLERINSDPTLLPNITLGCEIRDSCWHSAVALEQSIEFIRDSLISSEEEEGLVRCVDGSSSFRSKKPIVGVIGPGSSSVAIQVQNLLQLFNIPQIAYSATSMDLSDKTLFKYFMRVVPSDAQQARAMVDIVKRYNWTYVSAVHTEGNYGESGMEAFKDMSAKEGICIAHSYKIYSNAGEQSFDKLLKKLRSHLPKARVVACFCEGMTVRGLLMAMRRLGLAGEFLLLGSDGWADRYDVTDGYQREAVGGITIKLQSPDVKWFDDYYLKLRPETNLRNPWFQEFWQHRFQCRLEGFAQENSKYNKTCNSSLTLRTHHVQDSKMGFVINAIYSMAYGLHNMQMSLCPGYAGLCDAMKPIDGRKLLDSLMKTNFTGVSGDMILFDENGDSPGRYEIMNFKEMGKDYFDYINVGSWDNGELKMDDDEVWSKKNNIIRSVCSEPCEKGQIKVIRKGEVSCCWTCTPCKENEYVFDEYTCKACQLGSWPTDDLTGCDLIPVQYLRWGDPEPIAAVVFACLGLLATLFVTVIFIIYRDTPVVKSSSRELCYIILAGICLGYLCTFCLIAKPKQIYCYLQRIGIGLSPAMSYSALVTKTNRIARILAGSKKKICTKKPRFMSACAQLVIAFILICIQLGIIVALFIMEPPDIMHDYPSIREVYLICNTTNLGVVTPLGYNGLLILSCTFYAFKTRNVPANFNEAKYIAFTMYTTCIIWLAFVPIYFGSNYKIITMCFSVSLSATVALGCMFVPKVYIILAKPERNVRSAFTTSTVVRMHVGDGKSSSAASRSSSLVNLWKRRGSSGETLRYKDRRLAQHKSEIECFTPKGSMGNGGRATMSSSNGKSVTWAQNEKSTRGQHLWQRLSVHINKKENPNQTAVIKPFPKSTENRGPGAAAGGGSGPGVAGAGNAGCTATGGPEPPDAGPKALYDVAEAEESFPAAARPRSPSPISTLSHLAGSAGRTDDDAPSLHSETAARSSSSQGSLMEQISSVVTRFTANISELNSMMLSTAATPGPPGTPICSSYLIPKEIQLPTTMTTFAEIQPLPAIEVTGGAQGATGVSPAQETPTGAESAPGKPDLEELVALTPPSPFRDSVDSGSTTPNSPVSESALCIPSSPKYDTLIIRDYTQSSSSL
Assay [7] in a line: MITF Orthogonal Assay: SK-MEL-5 CTG Assay Measured in Cell-Based System Using Plate Reader - 2084-02_Inhibitor_Dose_DryPowder_Activity_Set7. It counts as functional.
Assay [8] is described as follows: TRPM1 promoter luciferase reporter signal decrease, dose response, MITF inhibitor project, cell-based, SK-MEL-5, dry powder, set 8 (AID 624430). It counts as functional.
The nature of assay [9]: MITF: Counter assay: A375 proliferation Measured in Cell-Based System Using Plate Reader - 2084-03_Inhibitor_Dose_DryPowder_Activity_Set8. It counts as functional. The conditions noted are these: A-375.
In a further assay the test system is A549. In words: A549 cell toxicity, dose response, cytotoxicity control, plate reader, cherry-pick samples (AID 687028). The class given is functional, cell-based. The conditions noted are these: Homo sapiens.
Assay [10] deals with SWI/SNF-related matrix-associated actin-dependent regulator of chromatin subfamily A member 2 (Homo sapiens, UniProt P51531). In words: Luminescence-based cell-based high throughput dose response assay to identify activators of the function of SWI/SNF related, matrix associated, actin dependent regulator of chromatin, subfamily a, member 2 (SMARCA2, BRM). It counts as functional.
Chain of SWI/SNF-related matrix-associated actin-dependent regulator of chromatin subfamily A member 2 (P51531 whole entry): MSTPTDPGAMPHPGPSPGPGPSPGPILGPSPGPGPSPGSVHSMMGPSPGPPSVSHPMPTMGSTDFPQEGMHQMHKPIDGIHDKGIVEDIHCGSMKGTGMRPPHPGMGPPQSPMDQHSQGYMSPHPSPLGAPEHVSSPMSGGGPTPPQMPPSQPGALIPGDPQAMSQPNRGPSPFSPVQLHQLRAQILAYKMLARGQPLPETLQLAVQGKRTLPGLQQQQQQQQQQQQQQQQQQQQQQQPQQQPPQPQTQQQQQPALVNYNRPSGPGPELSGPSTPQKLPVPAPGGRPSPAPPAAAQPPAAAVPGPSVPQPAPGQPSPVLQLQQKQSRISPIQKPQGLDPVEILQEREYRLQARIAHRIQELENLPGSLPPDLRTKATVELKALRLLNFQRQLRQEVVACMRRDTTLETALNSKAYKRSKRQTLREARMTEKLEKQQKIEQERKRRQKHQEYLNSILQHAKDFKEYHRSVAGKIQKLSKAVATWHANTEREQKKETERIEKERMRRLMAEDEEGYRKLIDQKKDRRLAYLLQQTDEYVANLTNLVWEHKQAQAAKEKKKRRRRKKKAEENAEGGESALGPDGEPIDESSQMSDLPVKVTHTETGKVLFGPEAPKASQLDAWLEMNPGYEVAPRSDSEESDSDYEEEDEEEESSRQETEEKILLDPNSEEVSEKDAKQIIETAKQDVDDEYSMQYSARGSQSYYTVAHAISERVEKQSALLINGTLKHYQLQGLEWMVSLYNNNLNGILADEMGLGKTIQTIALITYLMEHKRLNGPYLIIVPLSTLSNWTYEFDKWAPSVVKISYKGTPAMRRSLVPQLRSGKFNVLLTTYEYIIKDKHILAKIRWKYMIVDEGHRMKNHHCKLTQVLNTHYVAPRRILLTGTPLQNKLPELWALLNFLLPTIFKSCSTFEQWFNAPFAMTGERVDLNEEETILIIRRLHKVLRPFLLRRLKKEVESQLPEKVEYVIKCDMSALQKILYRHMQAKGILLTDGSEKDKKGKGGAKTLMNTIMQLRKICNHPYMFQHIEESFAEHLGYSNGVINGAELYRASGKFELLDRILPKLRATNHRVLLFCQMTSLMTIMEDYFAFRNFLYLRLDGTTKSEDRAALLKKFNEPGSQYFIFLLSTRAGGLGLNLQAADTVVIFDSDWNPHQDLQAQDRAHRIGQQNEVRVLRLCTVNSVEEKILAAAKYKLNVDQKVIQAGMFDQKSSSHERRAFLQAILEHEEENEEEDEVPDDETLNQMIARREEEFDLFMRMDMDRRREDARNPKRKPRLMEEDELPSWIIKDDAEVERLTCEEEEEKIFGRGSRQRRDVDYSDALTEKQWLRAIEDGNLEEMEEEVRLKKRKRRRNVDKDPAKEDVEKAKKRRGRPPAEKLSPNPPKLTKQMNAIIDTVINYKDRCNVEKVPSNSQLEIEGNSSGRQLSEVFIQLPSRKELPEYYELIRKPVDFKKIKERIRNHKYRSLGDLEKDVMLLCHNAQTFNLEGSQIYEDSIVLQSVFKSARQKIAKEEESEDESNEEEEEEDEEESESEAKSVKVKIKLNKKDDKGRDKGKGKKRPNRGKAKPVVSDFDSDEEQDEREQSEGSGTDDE

Assay [11] relates to HEK293. The assay is described as follows: cells. The conditions noted are these: Homo sapiens.
The test system of assay [12] is HEK293. In words: cells. The following applies: Homo sapiens. The source holds these as a separate data set.
In assay [13] the target is Beta-2 adrenergic receptor (Homo sapiens, UniProt P07550). In words: beta2AR agonists driving receptor internalization, dose response, cell-based, FAP fluorogen, flow cytometry, cherry pick 1 (AID 588763). The class given is functional.
A short description of assay [14]: Counterscreen for activators of the function of SWI/SNF related, matrix associated, actin dependent regulator of chromatin, subfamily a, member 2 (SMARCA2, BRM): Luminescence-based cell-based high throughput dose response assay to identify non-selective compounds using the VP16 reporter assay. The class given is functional.
In assay [15] the target is ATP-dependent translocase ABCB1 (Homo sapiens, UniProt P08183). In words: ABCB1 efflux inhibition concentration-response, dose response, Jurkat-DNR cells, JC-1, flow cytometry, follow-up (AID 489002). The class given is functional. (In general: Flow cytometry measures light scatter and fluorescence of single cells or particles in a stream.)
Chain of ATP-dependent translocase ABCB1 (P08183 whole entry): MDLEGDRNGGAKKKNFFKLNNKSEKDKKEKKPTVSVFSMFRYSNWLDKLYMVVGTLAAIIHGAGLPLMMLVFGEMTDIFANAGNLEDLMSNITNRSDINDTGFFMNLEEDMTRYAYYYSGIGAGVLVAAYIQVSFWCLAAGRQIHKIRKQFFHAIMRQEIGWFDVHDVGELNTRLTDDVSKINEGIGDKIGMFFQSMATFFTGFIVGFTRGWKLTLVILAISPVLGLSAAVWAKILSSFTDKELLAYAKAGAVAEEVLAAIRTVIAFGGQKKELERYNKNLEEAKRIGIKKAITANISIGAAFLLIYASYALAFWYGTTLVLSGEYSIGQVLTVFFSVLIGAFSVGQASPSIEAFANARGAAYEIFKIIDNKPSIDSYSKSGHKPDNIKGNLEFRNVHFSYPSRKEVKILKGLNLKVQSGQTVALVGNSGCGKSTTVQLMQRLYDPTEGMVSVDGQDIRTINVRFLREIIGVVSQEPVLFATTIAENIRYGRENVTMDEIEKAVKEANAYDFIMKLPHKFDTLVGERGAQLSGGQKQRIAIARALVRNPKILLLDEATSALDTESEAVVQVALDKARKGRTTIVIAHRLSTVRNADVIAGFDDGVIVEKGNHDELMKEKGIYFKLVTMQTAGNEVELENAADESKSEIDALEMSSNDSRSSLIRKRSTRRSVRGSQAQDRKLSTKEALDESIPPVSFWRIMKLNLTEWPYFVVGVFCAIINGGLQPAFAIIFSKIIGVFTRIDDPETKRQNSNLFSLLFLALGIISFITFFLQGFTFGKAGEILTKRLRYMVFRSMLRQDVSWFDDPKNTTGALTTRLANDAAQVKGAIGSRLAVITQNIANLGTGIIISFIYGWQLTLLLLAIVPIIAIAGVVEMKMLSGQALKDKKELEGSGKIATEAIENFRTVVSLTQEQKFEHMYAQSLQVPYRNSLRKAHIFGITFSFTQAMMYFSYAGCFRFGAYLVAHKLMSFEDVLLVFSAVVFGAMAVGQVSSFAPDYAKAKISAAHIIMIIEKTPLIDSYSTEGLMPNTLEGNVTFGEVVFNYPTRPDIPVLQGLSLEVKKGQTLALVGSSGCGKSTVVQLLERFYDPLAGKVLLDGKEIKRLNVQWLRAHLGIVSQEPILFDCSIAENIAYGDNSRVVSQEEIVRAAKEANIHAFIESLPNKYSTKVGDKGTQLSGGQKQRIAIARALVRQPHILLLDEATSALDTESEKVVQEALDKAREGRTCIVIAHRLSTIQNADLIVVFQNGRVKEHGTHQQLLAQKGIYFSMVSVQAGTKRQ
A short description of assay [16]: cytotoxicity in L-6 rat myocytes, dose response, cytotoxicity control, cell-based, plate reader, cherry-pick (AID 651896). It counts as functional.
Assay [17] is described as follows: intracellular Trypanosoma cruzi inhibitors in host cells – cell-based, plate reader, cherry-pick samples, set 3, dose response (AID 651818).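 Note: compounds incubated with infected cells for about four days.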 The class given is functional.
A short description of assay [18]: T. b. rhodesiense proliferation inhibition, dose response, STIB900 strain, plate reader, cherry pick (AID 651893). The class given is functional, cell-based. The following applies: Trypanosoma brucei.
The nature of assay [19]: L. donovani amastigote growth inhibition, dose response, axenic amastigotes, plate reader, cherry pick (AID 651891). The class given is functional, cell-based. The conditions noted are these: Leishmania donovani.
The nature of assay [20]: Inhibition of T. cruzi Tulahuen strain amastigotes in L-6 muscle cells Measured in Cell-Based and Microorganism Combination System Using Plate Reader - 2138-03_Inhibitor_Dose_CherryPick_Activity. The conditions noted are these: Rattus norvegicus, L6. The class given is functional.
Assay [21] is described as follows: Inhibition of Plasmodium falciparum NF54 Measured in Cell-Based System Using Plate Reader - 2138-11_Inhibitor_Dose_CherryPick_Activity. The class given is functional.
Assay [22] is described as follows: T. cruzi intracellular amastigote growth inhibition, dose response, imaging, CA-I/72 strain, bovine embryo skeletal muscle, dry powder (AID 651885). The class given is functional, cell-based.
The target of assay [23] is Endoplasmic reticulum aminopeptidase 1 (Homo sapiens, UniProt Q9NZ08). The assay is described as follows: ERAP1 aminopeptidase inhibitors, dose response, biochemical, cherry-pick, set 2, plate reader (AID 743314).

Active and inactive are the calls of the source.

Chain of Sphingosine 1-phosphate receptor 1 (P21453 whole entry): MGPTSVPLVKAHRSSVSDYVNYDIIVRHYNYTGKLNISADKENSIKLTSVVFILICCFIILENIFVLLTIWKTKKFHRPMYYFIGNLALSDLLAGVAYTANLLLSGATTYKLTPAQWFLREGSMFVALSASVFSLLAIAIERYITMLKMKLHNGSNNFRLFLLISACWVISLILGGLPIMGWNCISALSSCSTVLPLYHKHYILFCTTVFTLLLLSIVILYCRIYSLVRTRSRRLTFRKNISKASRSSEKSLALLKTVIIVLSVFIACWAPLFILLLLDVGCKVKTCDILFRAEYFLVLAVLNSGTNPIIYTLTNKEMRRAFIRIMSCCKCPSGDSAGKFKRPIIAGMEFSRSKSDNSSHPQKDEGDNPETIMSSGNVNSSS

As to `CCOC(=O)c1cc(C(=O)OC)c(C)nc1N1CCC(NC2CCCCC2O)CC1` (stereo not drawn), the IC50 in assay [1] was > 50 µM (inactive).
Usually AC50 stands for the concentration giving half of the maximal activity seen. What is called EC50 is the midpoint of the concentration-response curve. As for `CCOC(=O)CC1CCCCN1C(=O)c1cc(COc2cccc3cnccc23)on1` (stereo not drawn), the AC50 was 5.89 µM (active) in the assay on INS1, 0.67 µM (active) in assay [2] and 0.713 µM (active) in [5]. Besides, the IC50 is 0.448 µM (active) on Galanin receptor type 3, > 80 µM (inactive) in assay [3], 0.777 µM (active) at Protein Wnt-3a and 11 µM (active) in assay [4]. Moreover, the EC50 in the assay “cells” was > 29.9 µM (inactive).
In the case of `CS(=O)(=O)N(Cc1nc2ccccc2[nH]1)c1ccccc1Cl`, in assay [6], the EC50 turned out to be 2.46 µM.
As for `CN1CCN(C2=C(Nc3ccc(Cl)cc3)C(=O)c3ccccc3C2=O)CC1`, the values for the AC50 in [7], in assay [8] and in assay [9] were 11.6 µM (active), 17.4 µM (active) and 39.3 µM (active), respectively.
As for `Cc1ccccc1S(=O)(=O)N1CC[C@@H]2[C@H](CO)Nc3ccc(-c4cccc(C#N)c4)cc3[C@@H]21`, the AC50 with A549 is 28.8 µM (active).
Consider `CC1(C)Cc2c(c(-c3ccco3)nc3sc4c(NCCCO)ncnc4c23)CO1`, for which the EC50 in assay [10] was > 91.2 µM (inactive); in the assay on HEK293 [11], > 59.6 µM (inactive); in the assay on HEK293 [12], > 59.6 µM (inactive); in assay [13] it was 0.0207 µM (active); in assay [14], > 91.2 µM (inactive).
As for `CC1CN(C(=O)c2ccoc2)CCN1c1cc(-c2ccco2)nc2cc(-c3ccccc3)nn12` (stereo not drawn), the EC50 in assay [15] worked out at 0.0002986 µM.
With `C[C@@H]1CN([C@@H](C)CO)C(=O)c2cccc(NC(=O)c3ccncc3)c2O[C@H]1CN(C)Cc1ccccc1`, the IC50 is > 100 µM (inactive) in assay [16]; 5.33 µM (inactive) in assay [18]; > 100 µM (inactive) in [19]; 4.77 µM (inactive) in assay [20]; 4.77 µM (inactive) in [21]; 10 µM (inconclusive) in assay [22]. For the same compound, in assay [17], the AC50 is 0.08 µM (active).
On to `COC(=O)[C@@H]1[C@@H](CO)[C@@H]2Cn3c(ccc(/C=C/c4ccccc4)c3=O)[C@H]1N2C(=O)C1CCC1`, for which the AC50 in assay [23] was 3.47 µM (active).

The values above are taken from ChEMBL document CHEMBL1201862, “PubChem BioAssay data set” (2004).
